Biological target: T1, DAT (Homo sapiens, UniProt Q01959)
T1 construct: expressed in transfected cells
Assay: Dopamine uptake inhibition dose response of hit compounds (Figure 6)
Assay type: cell-based
Settings: doses 1 nM to 100 μM, normalized to vehicle
Method: Dopamine uptake inhibition was conducted using the Neurotransmitter Transporter Uptake Assay Kit (Molecular Devices, prod#R8173). Cells (1 × 10^5/well) were seeded into 96-well plates and incubated for 24 h. The cells were subjected to overnight drug treatment. The following day, wells were washed and incubated for 30 min with a mixture of 1X Hank’s Balanced Salt Solution (HBSS) and 0.1% Bovine Serum Albumin (BSA) Buffer. Dopamine uptake inhibitors were added during the incubation period. Following the incubation, the fluorescent dye was added, and the plate was immediately transferred to the bottom-read fluorescence microplate reader (Spectramax M3, Molecular Devices) for kinetic read-mode. The assay reads the amount of fluorescent activity which increases as fluorescent dye molecules are transported into the cells by the DAT. The read-out for this assay is the slope which equals the fluorescent measurements/time, ultimately denoting the uptake rate.
Data analysis was performed using GraphPad Prism (GraphPad Software, La Jolla, CA). Linear regression analysis was performed on βLAC time points to determine the slope, thus the rate of reaction, for comparison. Furthermore, the slope was also used to determine the degree of dopamine uptake in the dopamine uptake assays. […]

T1 sequence (Q01959 whole entry): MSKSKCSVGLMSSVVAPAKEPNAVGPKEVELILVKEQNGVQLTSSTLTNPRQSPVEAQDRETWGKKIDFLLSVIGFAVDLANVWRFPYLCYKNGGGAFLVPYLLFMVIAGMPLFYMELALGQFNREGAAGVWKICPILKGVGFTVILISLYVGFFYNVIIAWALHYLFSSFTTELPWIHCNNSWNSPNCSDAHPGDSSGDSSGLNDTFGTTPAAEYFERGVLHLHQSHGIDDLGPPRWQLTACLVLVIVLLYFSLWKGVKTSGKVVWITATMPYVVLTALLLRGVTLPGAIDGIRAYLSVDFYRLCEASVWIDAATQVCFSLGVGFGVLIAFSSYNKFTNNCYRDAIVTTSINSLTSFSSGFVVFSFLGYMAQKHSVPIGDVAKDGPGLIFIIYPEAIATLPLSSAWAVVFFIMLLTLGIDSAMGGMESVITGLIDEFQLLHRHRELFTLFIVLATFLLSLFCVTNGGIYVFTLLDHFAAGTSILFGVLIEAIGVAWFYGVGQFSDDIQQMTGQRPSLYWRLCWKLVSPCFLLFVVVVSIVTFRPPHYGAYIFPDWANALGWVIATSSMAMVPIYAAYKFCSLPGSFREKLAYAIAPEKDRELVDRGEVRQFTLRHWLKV

CCC1CC2CC3c4[nH]c5ccc(O)cc5c4CCN(C2)C13 (stereo not shown) [Noribogaine, reference compound]
maximal dopamine uptake inhibition: 76%
